Measurements taken from patent publication US9593305B2, “Differentiation of pluripotent stem cells” (Janssen Biotech, Inc., priority 2008, dated 2017).

System: human embryonic stem cells
Assay: Dose response of activin A and GDF-8, SOX17 intensity (Example 11, Table 11)
Type: cell-based
Details: Wnt3a day 1, three days
Description: Stock cultures of human embryonic stem cells (1-11 human embryonic stem cell line) were maintained in an undifferentiated, pluripotent state on reduced growth factor […]-coated dishes in MEF conditioned medium with passage on average every four days. Passage was performed by exposing cell cultures to a solution of 1 mg/ml dispase (Invitrogen, Cat #: 17105-041) for 5 to 7 minutes at 37° C. followed by rinsing the monolayer with MEF conditioned culture medium and gentle scraping to recover cell clusters. Clusters were centrifuged at low speed to collect a cell pellet and remove residual dispase. Cell clusters were split at a 1:3 or 1:4 ratio for routine maintenance culture or a 1:1 ratio for immediate assay. All human embryonic stem cell lines were maintained at passage numbers less than 50 and routinely evaluated for normal karyotypic phenotype and for absence of mycoplasma contamination.
Cell clusters used in the assay were evenly resuspended in MEF conditioned medium supplemented with 8 ng/ml bFGF and seeded onto reduced growth factor […]™-coated 96-well Packard VIEWPLATES (PerkinElmer; Cat #6005182) in volumes of 100 μl/well. MEF conditioned medium supplemented with 8 ng/ml bFGF was used for initial plating and expansion. Daily feeding was conducted by aspirating spent culture medium from each well and replacing with an equal volume of fresh medium. Plates were maintained at 37° C., 5% CO2 in a humidified box throughout the duration of assay.
The assay was initiated by aspirating the culture medium from each well and adding back an aliquot (100 μl) of test medium. Test conditions were performed in quadruplicate over a total three-day assay period, feeding on day 1 and day 2 by aspirating and replacing the medium from each well with fresh test medium. Two 12-channel polypropylene basins (Argos technologies, Inc, Cat #: B3135) were used to make the test media containing different concentrations of Activin A (PeproTech; Cat #120-14) or GDF-8 (R&D Systems, Cat #788-G8). Channels numbered 2 through 12 of each basin contained 1 ml assay medium composed of RPMI-1640 medium (Invitrogen; Cat #: 22400) supplemented with 2% Albumin Bovine Fraction V, Fatty Acid Free (FAF BSA) (MP Biomedicals, Inc; Cat #152401) and 8 ng/ml bFGF (PeproTech Inc.; Cat #: 100-18B), and with 20 ng/ml Wnt3a (R&D Systems; Cat #1324-WN/CF) added on day 1, omitted on day 2 and 3. Channel number 1 of each basin contained 1600 ng/ml Activin A or 1600 ng/ml GDF-8, diluted into the same assay medium. One ml of medium was transferred from channel number 1 to channel number 2 and mixed well. A fresh pipette tip was used to transfer one ml of medium from channel number 2 to channel number 3, followed by thorough mixing. The same procedure was repeated in sequence through channel number 11 for each respective basin. Channel number 12 of each basin contained medium without Activin A or GDF-8. By doing this, a series of two-fold test dilutions was created, containing Activin A or GDF-8 at concentrations ranging from 1.6 ng/ml to 1600 ng/ml, for addition to the respective assay wells.
At the conclusion of three days of culture, assay plates were washed once with PBS (Invitrogen; Cat #14190), fixed with 4% paraformaldehyde (Alexis Biochemical; Cat #ALX-350-011) at room temperature for 20 minutes, then washed three times with PBS and permeabilized with 0.5% Triton X-100 (Sigma; Cat #T8760-2) for 20 minutes at room temperature. Cells were washed again three times with PBS and blocked with 4% chicken serum (Invitrogen; Cat #16110082) in PBS for 30 minutes at room temperature. Primary antibody (goat anti-human SOX17; R&D Systems; Cat #AF1924) was diluted 1:100 in 4% chicken serum and added to each well for two hours at room temperature. After washing three times with PBS, Alexa Fluor 488 conjugated secondary antibody (chicken anti-goat IgG; Invitrogen; Cat #A21467) diluted 1:200 in PBS was added to each well. […]

GDF-8: growth factor GDF-8, also known as myostatin, member of the TGF-β family
Normalized SOX17 Intensity, Average (1.56 ng/ml growth factor): 0.00%
Normalized SOX17 Intensity, Average (3.13 ng/ml growth factor): 0.10%
Normalized SOX17 Intensity, Average (6.25 ng/ml growth factor): 0.70%
Normalized SOX17 Intensity, Average (12.50 ng/ml growth factor): 0.90%
Normalized SOX17 Intensity, Average (25 ng/ml growth factor): 5.10%
Normalized SOX17 Intensity, Average (50 ng/ml growth factor): 17.60%
Normalized SOX17 Intensity, Average (100 ng/ml growth factor): 32.70%
Normalized SOX17 Intensity, Average (200 ng/ml growth factor): 51.30%
Normalized SOX17 Intensity, Average (400 ng/ml growth factor): 72.20%
Normalized SOX17 Intensity, Average (800 ng/ml growth factor): 84.90%
Normalized SOX17 Intensity, Average (1600 ng/ml growth factor): 100.00%
EC50 (SOX17 intensity, GraphPad Prism): 0.1848 µg/mL

Activin A: recombinant human activin A (PeproTech), TGF-beta family member
Normalized SOX17 Intensity, Average (1.56 ng/ml growth factor): 0.10%
Normalized SOX17 Intensity, Average (3.13 ng/ml growth factor): 3.00%
Normalized SOX17 Intensity, Average (6.25 ng/ml growth factor): 18.40%
Normalized SOX17 Intensity, Average (12.50 ng/ml growth factor): 50.90%
Normalized SOX17 Intensity, Average (25 ng/ml growth factor): 73.10%
Normalized SOX17 Intensity, Average (50 ng/ml growth factor): 85.20%
Normalized SOX17 Intensity, Average (100 ng/ml growth factor): 90.70%
Normalized SOX17 Intensity, Average (200 ng/ml growth factor): 100.00%
Normalized SOX17 Intensity, Average (400 ng/ml growth factor): 100.00%
Normalized SOX17 Intensity, Average (800 ng/ml growth factor): 100.00%
Normalized SOX17 Intensity, Average (1600 ng/ml growth factor): 100.00%
EC50 (SOX17 intensity, GraphPad Prism): 0.0139 µg/mL
